For assay [1], the target named is Glycogen synthase kinase-3 beta (Homo sapiens, UniProt P49841). Briefly: Inhibition of full-length recombinant human His-tagged GSK3B recombinant in baculovirus expression system using Alexa-Fluor tracer-236 incubated for 60 mins by TR-FRET based Lantha-screen Eu kinase assay. In general terms: In TR-FRET formats the signal depends on donor and acceptor labels being close together.

Assay [2] deals with Dual specificity tyrosine-phosphorylation-regulated kinase 1A (Homo sapiens, UniProt Q13627).
A short description of assay [3]: Induction of nuclear localization of GFP-tagged NFAT (unknown origin) expressed in mouse muscle fibres by DAPI staining based assay.

Glycogen synthase kinase-3 beta, sequence (P49841 whole entry): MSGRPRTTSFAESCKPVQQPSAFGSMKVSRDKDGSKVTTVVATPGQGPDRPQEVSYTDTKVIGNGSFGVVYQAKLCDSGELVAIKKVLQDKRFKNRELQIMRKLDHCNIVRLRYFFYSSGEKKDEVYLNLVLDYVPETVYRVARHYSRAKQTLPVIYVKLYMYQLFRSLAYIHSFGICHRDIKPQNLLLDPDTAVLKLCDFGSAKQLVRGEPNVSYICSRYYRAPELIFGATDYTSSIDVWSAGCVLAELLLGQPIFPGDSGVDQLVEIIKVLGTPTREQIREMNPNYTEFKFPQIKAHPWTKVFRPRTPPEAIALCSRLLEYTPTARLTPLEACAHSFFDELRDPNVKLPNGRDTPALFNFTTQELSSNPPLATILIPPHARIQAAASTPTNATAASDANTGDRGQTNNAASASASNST

In general, IC50 refers to the concentration needed to halve the response being measured. On to `Nc1nccc(-c2c[nH]c3c([N+](=O)[O-])cccc23)n1`, for which, in assay [1] (read-out: IC50), the IC50 is 9950 nM. As for `Nc1nccc(-c2c[nH]c3c(Br)cccc23)n1`, the IC50 in assay [1] (read-out: IC50) came out at 22400 nM; in assay [2], 79 nM. As for `Cc1nccc(-c2c[nH]c3cnccc23)n1`, the IC50 result in assay [1] was “Not Active”; in assay [2] it was 19 nM.

The term EC50 denotes the concentration giving half of the maximal effect. Read a high EC50 as a need for much substance. Consider `CC(C)n1cc(-c2ccncc2)c2ccncc21`, for which the IC50 in assay [1] (read-out: IC50) amounted to 660 nM; in assay [2], 8 nM. Besides, the midpoint of the response in assay [3], the EC50, lay at 2800 nM. `Nc1nccc(-c2c[nH]c3cc(Cl)ccc23)n1`: the results for the IC50 in assay [1] (read-out: IC50) and in assay [2] were 10700 nM and 406 nM, respectively. On the same counts, the results for `N#Cc1cccc2c(-c3ccnc(N)c3)c[nH]c12` are 13900 nM and 790 nM. `c1ccc2c(-c3c[nH]c4cnccc34)ccnc2c1`: the IC50 result is “Not Active” in assay [1] and 277 nM in assay [2]. On the same counts, the results for `COc1cccc2c(-c3ccnc(N)c3)c[nH]c12` are “Not Active” and 2140 nM. For `Nc1cc(-c2c[nH]c3cc(Cl)ccc23)ccn1` the same measures were “Not Active” and 2940 nM. Turning to `Fc1ccc(Cn2cc(-c3ccncc3)c3ccncc32)cc1`, the IC50 in assay [1] (read-out: IC50) was found to be 1010 nM; in assay [2], 12 nM. On to `N#Cc1cccc2c(-c3ccnc(N)n3)c[nH]c12`, for which the values for the IC50 in assay [1] (read-out: IC50) and in assay [2] were 5160 nM and 138 nM, respectively.

Consider `Nc1nccc(-c2c[nH]c3c(Cl)cccc23)n1`, for which the IC50 result in assay [1] is “Not Active”; in assay [2], 46 nM. On the same counts, the results for `Nc1cc(-c2c[nH]c3cnccc23)ccn1` are “Not Active” and 2020 nM. For `Clc1cnccc1-c1c[nH]c2cnccc12`, the IC50 in assay [1] (read-out: IC50) stood at 9610 nM; in assay [2], 61 nM.

As to `Cn1cc(-c2ccncc2)c2ccncc21`, the IC50 came to 4780 nM in assay [1] (read-out: IC50) and 89 nM in assay [2]. On the same counts, the results for `Nc1nccc(-c2c[nH]c3cnccc23)n1` are 12300 nM and 1 nM. Turning to `Cc1cc(-c2c[nH]c3cnccc23)ccn1`, the IC50 result in assay [1] is “Not Active”; in assay [2] it was 75 nM.

On to `c1cc(-c2c[nH]c3cnccc23)ccn1`, for which the IC50 was 9230 nM in assay [1] (read-out: IC50) and 1 nM in assay [2]. As to `Nc1cc(-c2c[nH]c3c(Cl)cccc23)ccn1`, the IC50 entry was “Not Active” in assay [1] and 94 nM in assay [2]. Regarding `Nc1nccc(-c2c[nH]c3cc(C(F)(F)F)ccc23)n1`, the IC50 came out at 15300 nM in assay [1] (read-out: IC50) and 62 nM in assay [2]. Consider `COc1cccc2c(-c3ccnc(N)n3)c[nH]c12`, for which the IC50 was found to be 15800 nM in assay [1] (read-out: IC50) and 242 nM in assay [2]. Consider `Nc1cc(-c2c[nH]c3c([N+](=O)[O-])cccc23)ccn1`, for which the IC50 entry was “Not Active” in assay [1] and 285 nM in assay [2]. For `COc1cc(-c2c[nH]c3cnccc23)ccn1` the same measures were “Not Active” and 351 nM. As for `COc1ccc2c(-c3ccnc(N)n3)c[nH]c2c1`, the figures for the IC50 in assay [1] (read-out: IC50) and in assay [2] were 7960 nM and 443 nM, respectively. Regarding `c1cc(-c2cn(CCCN3CCOCC3)c3cnccc23)ccn1`, the IC50 stood at 7580 nM in assay [1] (read-out: IC50) and 109 nM in assay [2].

For `COc1ccc2c(-c3ccnc(N)c3)c[nH]c2c1`, the IC50 stood at 12700 nM in assay [1] (read-out: IC50) and 2900 nM in assay [2]. As to `Fc1cc(-c2c[nH]c3cnccc23)ccn1`, the IC50 result in assay [1] is “Not Active”; in assay [2] it was 69 nM. Take `c1cncc(-c2c[nH]c3cnccc23)c1`: the IC50 in assay [1] (read-out: IC50) came to 31000 nM; in assay [2], 7960 nM. Regarding `Nc1cc(-c2c[nH]c3cc(C(F)(F)F)ccc23)ccn1`, the results for the IC50 entry in assay [1] and in assay [2] were “Not Active” and 4340 nM, respectively. For `c1cc(-c2cn(CCC3CC3)c3cnccc23)ccn1`, the figures for the IC50 in assay [1] (read-out: IC50) and in assay [2] were 1140 nM and 8 nM, respectively. For `Nc1nccc(-c2c[nH]c3ccccc23)n1` the same measures were 14800 nM and 588 nM. Turning to `COc1ccc2c(c1)[nH]c1c(C)nccc12` [HARMINE], the IC50 entry in assay [1] is listed as “Not Active”.

Values taken from ChEMBL document CHEMBL4033637, “Developing DYRK inhibitors derived from the meridianins as a means of increasing levels of NFAT in the nucleus” (Bioorg Med Chem Lett, 2017).
